Patent US7129269B2, “Compound” (Sterix Ltd., priority 1996, dated 2006)
Where “and” joins values, the source holds several entries; their conditions need not be identical. Equal values may be shown once.

How the values were obtained:
[1] = molecular target: T1, oestrone sulphatase (E1-STS) (Homo sapiens, UniProt P08842); test: Oestrone sulphatase (E1-STS) inhibition in intact MCF-7 breast cancer cells; type: cell-based
T1 construct: endogenous in cells; host or cells: MCF-7 breast cancer cells
T1 sequence (P08842 22-583): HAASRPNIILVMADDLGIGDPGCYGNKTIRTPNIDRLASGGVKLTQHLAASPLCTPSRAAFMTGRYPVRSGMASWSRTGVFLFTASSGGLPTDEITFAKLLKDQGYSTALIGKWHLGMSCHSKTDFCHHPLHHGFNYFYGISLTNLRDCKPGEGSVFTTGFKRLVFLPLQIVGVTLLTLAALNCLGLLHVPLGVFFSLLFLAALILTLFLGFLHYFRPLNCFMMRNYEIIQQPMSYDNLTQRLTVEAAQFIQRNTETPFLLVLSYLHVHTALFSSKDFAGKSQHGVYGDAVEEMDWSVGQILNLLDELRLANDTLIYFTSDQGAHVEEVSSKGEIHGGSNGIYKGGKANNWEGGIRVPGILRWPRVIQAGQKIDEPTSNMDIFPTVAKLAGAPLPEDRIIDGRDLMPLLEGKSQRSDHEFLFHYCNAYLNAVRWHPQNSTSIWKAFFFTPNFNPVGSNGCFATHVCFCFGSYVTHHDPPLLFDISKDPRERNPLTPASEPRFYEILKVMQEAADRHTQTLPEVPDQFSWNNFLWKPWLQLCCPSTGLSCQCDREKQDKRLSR

oestrone sulphatase = molecular target: T2, oestrone sulphatase (Rattus norvegicus, UniProt P15589); test: In vivo inhibition of oestrone sulphatase activity in rat liver; details: 24 hours after single oral dose in propylene glycol; for % Inhibition of oestrone sulphatase in vivo: 10 mg/Kg
T2 construct: from tissue; host or cells: rat liver
T2 sequence (P15589 20-577): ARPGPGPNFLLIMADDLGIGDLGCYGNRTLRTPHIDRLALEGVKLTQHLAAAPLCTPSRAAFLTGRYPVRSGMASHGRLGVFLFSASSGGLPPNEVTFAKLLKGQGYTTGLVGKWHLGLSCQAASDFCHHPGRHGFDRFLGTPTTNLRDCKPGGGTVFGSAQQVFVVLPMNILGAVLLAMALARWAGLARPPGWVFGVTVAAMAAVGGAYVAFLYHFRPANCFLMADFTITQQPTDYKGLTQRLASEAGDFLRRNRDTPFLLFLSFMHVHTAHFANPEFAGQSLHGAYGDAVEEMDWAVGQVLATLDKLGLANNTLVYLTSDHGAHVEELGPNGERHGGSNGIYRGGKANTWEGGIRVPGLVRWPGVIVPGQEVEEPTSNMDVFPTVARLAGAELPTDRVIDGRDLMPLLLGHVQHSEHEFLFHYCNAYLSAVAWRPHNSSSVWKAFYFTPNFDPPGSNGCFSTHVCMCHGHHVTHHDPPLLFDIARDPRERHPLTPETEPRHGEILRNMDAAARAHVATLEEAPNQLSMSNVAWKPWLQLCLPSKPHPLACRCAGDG
Procedure: FIG. 11 presents in vivo inhibition of oestrone sulphatase activity in rat liver for two isoflavones according to the present invention. […] Compounds were administered as a single 10 mg/Kg dose. Oestrone sulphatase activity was assayed in tissue samples obtained 24 h after drug administration.

aromatase = molecular target: T3, aromatase (Homo sapiens, UniProt P11511); test: Aromatase inhibition in placental microsomes, tritiated water release assay
T3 sequence (P11511 1-503): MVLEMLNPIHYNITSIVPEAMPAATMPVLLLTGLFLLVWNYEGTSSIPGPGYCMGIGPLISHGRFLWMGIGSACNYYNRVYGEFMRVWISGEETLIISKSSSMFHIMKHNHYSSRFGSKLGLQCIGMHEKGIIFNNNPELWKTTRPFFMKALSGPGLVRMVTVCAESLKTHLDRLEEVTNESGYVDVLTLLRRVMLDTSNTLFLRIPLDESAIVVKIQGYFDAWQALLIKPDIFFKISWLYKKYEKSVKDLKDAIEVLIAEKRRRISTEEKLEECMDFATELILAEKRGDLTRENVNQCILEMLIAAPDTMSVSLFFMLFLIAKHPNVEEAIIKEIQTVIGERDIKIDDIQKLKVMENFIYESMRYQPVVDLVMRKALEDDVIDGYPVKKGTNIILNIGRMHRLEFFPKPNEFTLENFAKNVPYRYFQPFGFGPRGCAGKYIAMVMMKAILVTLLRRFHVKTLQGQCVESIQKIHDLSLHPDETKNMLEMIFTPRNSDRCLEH

SMILES	% Inhibition of sulphatase activity in MCF-7 cells ([1]; 0.1 μM)	% Inhibition of sulphatase activity in MCF-7 cells ([1]; 1 μM)	% Inhibition of sulphatase activity in MCF-7 cells ([1]; 10 μM)	% Inhibition of oestrone sulphatase in vivo (oestrone sulphatase)	% Inhibition of aromatase activity in placental microsomes at 10 μM (aromatase)	inhibition at 1 mg/kg (oestrone sulphatase; 1 mg/Kg)
COc1ccc(-c2cc(=O)c3c(OC)c(OC)c(OC)cc3o2)cc1OS(N)(=O)=O [Compound 7, 4′,5,6,7-Tetramethoxy flavone-3′-O-sulphamate]	29 ± 0.8%	23 ± 1.8%	12 ± 0.5%			
COc1cc2oc(-c3ccccc3)cc(=O)c2c(O)c1OS(N)(=O)=O [Compound 4, 5-Hydroxy-7-methoxy flavone-6-O-sulphamate]	11 ± 2.7%	51 ± 3.0%	78 ± 1.7%			
NS(=O)(=O)Oc1ccc(-c2coc3cc(OS(N)(=O)=O)ccc3c2=O)cc1 [Compound 19, Isoflavone-4′,7-O,O-bisulphamate]				71.4 ± 2.9%	* (*Inactive)	
COc1cc(-c2oc3cc(O)ccc3c(=O)c2OS(N)(=O)=O)cc(OC)c1OC [Compound 15, 7-Hydroxy 3′,4′,5′-Trimethoxy flavone-3-O-sulphamate]	* (*Inactive)	* (*Inactive)	* (*Inactive)			
COc1cc(-c2oc3cc(OS(N)(=O)=O)cc(O)c3c(=O)c2OS(N)(=O)=O)cc(OC)c1OC [Compound 12, 5-Hydroxy-3′,4′,5′-Trimethoxy flavone-3,7-O,O-bisulphamate]	* (*Inactive)	* (*Inactive)	* (*Inactive)			
NS(=O)(=O)Oc1ccc(-c2coc3cc(O)cc(O)c3c2=O)cc1 [Compound 18, 5,7-Dihydroxy isoflavone-4′-O-sulphamate]	23 ± 2.2%	83 ± 2.7%	99 ± 0.7%	62.0 ± 4.7%	* (*Inactive)	
NS(=O)(=O)Oc1ccc(-c2cc(=O)c3c(O)cc(OS(N)(=O)=O)cc3o2)cc1 [Compound 9, 5-Hydroxy flavone-4′,7-O,O-bisulphamate]	8 ± 2.6%	79 ± 0.8%	98 ± 0.4%			
NS(=O)(=O)Oc1ccc(-c2cc(=O)c3ccccc3o2)cc1OS(N)(=O)=O [Compound 8, Flavone-3′,4′-O,O-bisulphamate]	* (*Inactive)	13 ± 8.0%	29 ± 1.3%			
NS(=O)(=O)Oc1ccc2oc(-c3ccccc3)cc(=O)c2c1 [Compound 2, Flavone-6-O-sulphamate]		99.1 ± 0.6%	98.9 ± 1.3%			
COc1cc(-c2oc3cc(OS(N)(=O)=O)ccc3c(=O)c2OS(N)(=O)=O)cc(OC)c1OC [Compound 14, 3′,4′,5′-Trimethoxy flavone-3,7-O,O-bisulphamate]	* (*Inactive)	* (*Inactive)	* (*Inactive)			
C[C@]12CC[C@@H]3c4ccc(OS(N)(=O)=O)cc4CC[C@H]3[C@@H]1CCC2=O [EMATE, oestrone-3-sulphamate, reference compound]						> 99%
COc1cc(O)c2c(=O)cc(-c3ccc(OS(N)(=O)=O)cc3)oc2c1 [Compound 5, 5-Hydroxy-7-methoxy-flavone-4′-O-sulphamate]	35 ± 4.0%	88 ± 3.1%	99 ± 0.6%			
COc1cc(-c2oc3cc(O)cc(O)c3c(=O)c2OS(N)(=O)=O)cc(OC)c1OC [Compound 13, 5,7-Dihydroxy-3′,4′,5′-Trimethoxy flavone-3-O-sulphamate]	* (*Inactive)	* (*Inactive)	* (*Inactive)			
COc1ccc(C2CC(=O)c3c(O)cc(OS(N)(=O)=O)cc3O2)cc1OS(N)(=O)=O (stereo not drawn) [Compound 21, 5-Hydroxy 4′-methoxy flavanone-3′,7-O,O-bisulphamate]	2 ± 1.3%	8 ± 0.6%	9 ± 1.2%			
COc1ccc(-c2coc3cc(OS(N)(=O)=O)cc(O)c3c2=O)cc1 [Compound 16, 5-Hydroxy-4′-methoxyisoflavone 7-O-sulphamate]	* (*Inactive)	11 ± 3.0%	37 ± 1.7%		* (*Inactive)	
NS(=O)(=O)Oc1cc(O)c2c(=O)c(OS(N)(=O)=O)c(-c3ccccc3)oc2c1 [Compound 10, 5-Hydroxy flavone-3,7-O,O-bisulphamate]	* (*Inactive)	8 ± 6.4%	12 ± 7.5%			
COc1ccc(-c2oc3cc(OS(N)(=O)=O)cc(O)c3c(=O)c2OS(N)(=O)=O)cc1 [Compound 11, 5-Hydroxy-4′-methoxy flavone-3,7-O,O-bisulphamate]	* (*Inactive)	* (*Inactive)	* (*Inactive)			
NS(=O)(=O)Oc1ccc2c(=O)cc(-c3ccccc3)oc2c1 [Compound 1, Flavone-7-O-sulphamate]	0.30 ± 0.2%	1.8 ± 1.0%	4.9 ± 0.3%			
NS(=O)(=O)Oc1ccc(-c2coc3cc(OS(N)(=O)=O)cc(O)c3c2=O)cc1 [Compound 17, 5-Hydroxy isoflavone-4′,7-O,O-bisulphamate]	22–87% and 28 ± 1.7%	79–99%		81.4 ± 3.2%	* (*Inactive)	
COc1ccc(-c2cc(=O)c3c(O)c(OC)c(OC)cc3o2)cc1OS(N)(=O)=O [Compound 6, 5-Hydroxy 4′,6,7-Trimethoxy flavone-3′-O-sulphamate]	* (*Inactive)	18 ± 6.1%	27 ± 3.5%			
